Experimental data published in PubChem BioAssay (NCI).
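Each compound was tested at five concentrations against cells in 96-well plates for 48 hours. GI50: concentration for 50% inhibition of growth. TGI is the concentration that stops growth completely.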

Legend:
Assay in all cases: NCI tumour cell line growth inhibition, 48 h
[1] = test system: SF-539 CNS
[2] = test system: IGROV1 ovarian
[3] = test system: NCI-H23 lung
[4] = test system: COLO 205 colon
[5] = test system: HOP-62 NSCLC
[6] = test system: SNB-75 CNS
[7] = test system: LOX IMVI melanoma
[8] = test system: OVCAR-4 ovarian
[9] = test system: HCT-116 colon
[10] = test system: ACHN renal
[11] = test system: HT29 colon
[12] = test system: A498 renal
[13] = test system: SK-MEL-5 melanoma
[14] = test system: BT-549 breast
[15] = test system: NCI/ADR-RES ovarian
[16] = test system: UACC-257 melanoma
[17] = test system: SK-MEL-2 melanoma
[18] = test system: SR leukemia
[19] = test system: PC-3 prostate
[20] = test system: MCF7 breast
[21] = test system: U251 CNS
[22] = test system: SW-620 colon
[23] = test system: HOP-92 NSCLC
[24] = test system: OVCAR-8 ovarian
[25] = test system: HL-60(TB) leukemia
[26] = test system: MDA-MB-231 breast
[27] = test system: KM12 colon
[28] = test system: SK-OV-3 ovarian
[29] = test system: MDA-MB-435
[30] = test system: SK-MEL-28 melanoma
[31] = test system: CAKI-1 renal
[32] = test system: M14 melanoma
[33] = test system: UO-31 renal
[34] = test system: NCI-H460 lung
[35] = test system: NCI-H226 lung
[36] = test system: 786-0 renal
[37] = test system: TK-10 renal
[38] = test system: NCI-H522 lung
[39] = test system: CCRF-CEM leukemia
[40] = test system: A549 NSCLC
[41] = test system: RPMI-8226 leukemia
[42] = test system: T-47D breast
[43] = test system: SF-295 CNS
[44] = test system: UACC-62 melanoma
[45] = test system: RXF 393 renal
[46] = test system: K-562 leukemia
[47] = test system: HCC-2998 colon
[48] = test system: MOLT-4 leukemia
[49] = test system: MALME-3M melanoma
[50] = test system: EKVX NSCLC
[51] = test system: HCT-15 colon
[52] = test system: DU-145 prostate
[53] = test system: OVCAR-5 ovarian
[54] = test system: SN12C renal
[55] = test system: SNB-19 CNS
[56] = test system: SF-268 CNS
[57] = test system: HS 578T breast

Oc1ccc(CSc2nnc(-c3ccc(Oc4ccccc4)cc3)n2-c2ccccc2)c2cccnc12
GI50 [1]: 230 nM
TGI [1]: 9870 nM
GI50 [2]: 166 nM
TGI [2]: > 55900 nM
GI50 [3]: 260 nM
TGI [3]: 25600 nM
GI50 [4]: 1270 nM
TGI [4]: > 100000 nM
GI50 [5]: 304 nM
TGI [5]: > 34600 nM
GI50 [6]: 188 nM
TGI [6]: 22700 nM
GI50 [7]: 169 nM
TGI [7]: 7180 nM
GI50 [8]: 451 nM
TGI [8]: > 72300 nM
GI50 [9]: 41.3 nM
TGI [9]: 16000 nM
GI50 [10]: 137 nM
TGI [10]: 10900 nM
GI50 [11]: 4100 nM
TGI [11]: > 100000 nM
GI50 [12]: 641 nM
TGI [12]: 19800 nM
GI50 [13]: 222 nM
TGI [13]: 2400 nM
GI50 [14]: 105 nM
TGI [14]: > 100000 nM
GI50 [15]: 270 nM
TGI [15]: 6990 nM
GI50 [16]: 186 nM
TGI [16]: 843 nM
GI50 [17]: 442 nM
TGI [17]: > 25500 nM
GI50 [18]: 66.4 nM
TGI [18]: 20300 nM
GI50 [19]: 83.4 nM
TGI [19]: > 100000 nM
GI50 [20]: 94.2 nM
TGI [20]: > 100000 nM
GI50 [21]: 69.6 nM
TGI [21]: > 35600 nM
GI50 [22]: 182 nM
TGI [22]: > 100000 nM
GI50 [23]: 213 nM
TGI [23]: 31800 nM
GI50 [24]: 146 nM
TGI [24]: > 46500 nM
GI50 [25]: 79.8 nM
TGI [25]: 1060 nM
GI50 [26]: 355 nM
TGI [26]: 33000 nM
GI50 [27]: 176 nM
TGI [27]: > 100000 nM
GI50 [28]: 307 nM
GI50 [29]: 57 nM
TGI [29]: > 100000 nM
GI50 [30]: 247 nM
TGI [30]: > 100000 nM
GI50 [31]: 313 nM
TGI [31]: 15200 nM
GI50 [32]: 95.4 nM
TGI [32]: 1120 nM
GI50 [33]: 142 nM
TGI [33]: 2450 nM
GI50 [34]: 38.5 nM
GI50 [35]: 369 nM
TGI [35]: > 100000 nM
GI50 [36]: 527 nM
TGI [36]: 11300 nM
GI50 [37]: 153 nM
TGI [37]: > 42400 nM
GI50 [38]: 226 nM
GI50 [39]: 72.9 nM
TGI [39]: > 100000 nM
GI50 [40]: 133 nM
TGI [40]: > 33200 nM
GI50 [41]: 146 nM
TGI [41]: > 100000 nM
GI50 [42]: 263 nM
TGI [42]: 9180 nM
GI50 [43]: 208 nM
TGI [43]: > 69200 nM
GI50 [44]: 256 nM
TGI [44]: 1130 nM
GI50 [45]: 981 nM
TGI [45]: > 58700 nM
GI50 [46]: 155 nM
TGI [46]: > 53100 nM
GI50 [47]: 154 nM
TGI [47]: > 100000 nM
GI50 [48]: 100 nM
TGI [48]: > 38500 nM
GI50 [49]: 340 nM
TGI [49]: 11000 nM
GI50 [50]: 339 nM
TGI [50]: > 100000 nM
GI50 [51]: 179 nM
TGI [51]: > 100000 nM
GI50 [52]: 340 nM
TGI [52]: > 100000 nM
GI50 [53]: 639 nM
TGI [53]: > 100000 nM
GI50 [54]: 275 nM
TGI [54]: > 100000 nM
GI50 [55]: 223 nM
TGI [55]: > 100000 nM
GI50 [56]: 73.9 nM
TGI [56]: > 100000 nM
GI50 [57]: 325 nM
TGI [57]: > 100000 nM
